The values that follow are results of earlier work, collected in US8053472B2, “Use of the acetyl L-carnitine in association with the biotin for the treatment of patients with type 2 insulin-resistant diabetes mellitus” (Sigma-Tau Industrie Farmaceutiche Riunite S.p.A., priority 2001, dated 2011).

The series relates to hypertriglyceridemic rats with noninsulin-dependent diabetes mellitus. The settings on record: high doses of biotin added to the diet.

Regarding `O=C(O)CCCC[C@@H]1SC[C@@H]2NC(=O)N[C@@H]21` [biotin], the “altered tolerance to glucose” value is listed as “improves”.
